Measured values from ChEMBL document CHEMBL3826930, “Antitumor activities of biscoumarin and dihydropyran derivatives” (Bioorg Med Chem Lett, 2016).
In brackets after ≈: the same amount, converted by molar mass.

Key:
Mus musculus [1] = test: Acute toxicity in Kunming mouse assessed as physical/abnormal changes in eyes at 500 mg/kg, administered as single dose after 14 days; format: organism-based; details: in vivo, 336 h
Mus musculus [2] = test: Acute toxicity in Kunming mouse assessed as tremor induction at 500 mg/kg, administered as single dose after 14 days; format: organism-based; details: in vivo, 336 h
HuTu80 [3] = test: Induction of apoptosis in human HuTu 80 cells assessed as late apoptotic cells at 3 ug/ml after 48 hrs by Annexin V/propidium iodide staining based flow cytometry (reference value: 1.6%); format: functional
Mus musculus [4] = test: Acute toxicity in Kunming mouse assessed as physical/abnormal changes in skin at 500 mg/kg, administered as single dose after 14 days; format: organism-based; details: in vivo, 336 h
HEK293 [5] = test: Selectivity index, ratio of IC50 for HEK293 cells to IC50 for human HuTu 80 cells; format: functional
Mus musculus [6] = test: Acute toxicity in Kunming mouse assessed as sleep pattern abnormality at 500 mg/kg, administered as single dose after 14 days; format: organism-based; details: in vivo, 336 h
[7] = Cell cycle arrest in human HuTu 80 cells assessed as accumulation at G2/M phase at 3 ug/ml after 48 hrs by propidium iodide staining based flow cytometry (reference value: 23.2%); format: functional; details: HuTu80
Mus musculus [8] = test: Acute toxicity in Kunming mouse assessed as behavior pattern abnormality at 500 mg/kg, administered as single dose after 14 days; format: organism-based; details: in vivo, 336 h
Mus musculus [9] = test: Acute toxicity in Kunming mouse assessed as physical/abnormal changes in fur at 500 mg/kg, administered as single dose after 14 days; format: organism-based; details: in vivo, 336 h
HEK293 [10] = test: Selectivity index, ratio of IC50 for HEK293 cells to IC50 for mouse 4T1 cells; format: functional
Mus musculus [11] = test: Acute toxicity in Kunming mouse assessed as survival at 500 mg/kg, administered as single dose measured on day 14 post dose; format: organism-based; details: in vivo
Mus musculus [12] = test: Acute toxicity in Kunming mouse assessed as physical/abnormal changes in mucus membrane at 500 mg/kg, administered as single dose after 14 days; format: organism-based; details: in vivo, 336 h
[13] = Cell cycle arrest in human HuTu 80 cells assessed as accumulation at S phase at 3 ug/ml after 48 hrs by propidium iodide staining based flow cytometry (reference value: 15.79 to 15.8%); format: functional; details: HuTu80
HuTu80 [14] = test: Selectivity index, ratio of IC50 for HUVEC to IC50 for human HuTu 80 cells
HUVEC = test: (§1) Cytotoxicity against HUVEC assessed as reduction in cell survival after 48 hrs by MTT assay; format: cell-based, Homo sapiens; details: Homo sapiens, HUVEC, 48 h
[15] = as §1; format: cell-based, Homo sapiens; details: human, HUVEC cells
Mus musculus [16] = test: Acute toxicity in Kunming mouse assessed as induction of salivation at 500 mg/kg, administered as single dose after 14 days; format: organism-based; details: in vivo, 336 h
Mus musculus [17] = test: Acute toxicity in Kunming mouse assessed as structural abnormality in kidney at 500 mg/kg, administered as single dose after 14 days by hematoxylin and eosin staining based histological analysis; format: organism-based; details: in vivo, 336 h
HuTu80 [18] = test: Induction of apoptosis in human HuTu 80 cells assessed as early apoptotic cells at 3 ug/ml after 48 hrs by Annexin V/propidium iodide staining based flow cytometry (reference value: 0.5%); format: functional
HEK293 [19] = test: Selectivity index, ratio of IC50 for HEK293 cells to IC50 for human PANC1 cells; format: functional
[20] = Antiproliferative activity against human HuTu 80 cells after 48 hrs by MTT assay; format: functional, cell-based; details: HuTu80, 48 h
[21] = (§2) Cytotoxicity against HEK293 cells assessed as reduction in cell survival after 48 hrs by MTT assay; format: cell-based, Homo sapiens; details: human, HEK293 cells
HEK293 [22] = test: as §2; format: cell-based, Homo sapiens; details: Homo sapiens, HEK293, 48 h
HuTu80 [23] = test: Induction of apoptosis in human HuTu 80 cells assessed as live cells at 3 ug/ml after 48 hrs by Annexin V/propidium iodide staining based flow cytometry (reference value: 92.5%); format: functional
[24] = Cell cycle arrest in human HuTu 80 cells assessed as accumulation at G1 phase at 3 ug/ml after 48 hrs by propidium iodide staining based flow cytometry (reference value: 43.3 to 43.32%); format: functional; details: HuTu80
HuTu80 [25] = test: Induction of apoptosis in human HuTu 80 cells assessed as necrotic cells at 3 ug/ml after 48 hrs by Annexin V/propidium iodide staining based flow cytometry (reference value: 5.3%); format: functional
4T1 [26] = test: Selectivity index, ratio of IC50 for HUVEC to IC50 for mouse 4T1 cells
[27] = Antiproliferative activity against human PANC1 cells after 48 hrs by MTT assay; format: functional, cell-based; details: PANC-1, 48 h
[28] = Cell cycle arrest in human HuTu 80 cells assessed as accumulation at subG1 phase at 3 ug/ml after 48 hrs by propidium iodide staining based flow cytometry (reference value: 2.27 to 2.3%); format: functional; details: HuTu80
4T1 [29] = test: Antiproliferative activity against mouse 4T1 cells after 48 hrs by MTT assay; format: functional, cell-based; details: 4T1, 48 h
PANC-1 = test: Selectivity index, ratio of IC50 for HUVEC to IC50 for human PANC1 cells
Mus musculus [30] = test: Acute toxicity in Kunming mouse assessed as structural abnormality in liver at 500 mg/kg, administered as single dose after 14 days by hematoxylin and eosin staining based histological analysis; format: organism-based; details: in vivo, 336 h

## O=c1oc2ccccc2c(O)c1C(c1ccc(F)c(F)c1)c1c(O)c2ccccc2oc1=O
Mus musculus [1]
  Activity: Non-toxic
Mus musculus [2]
  Activity: Non-toxic
HuTu80 [3]
  Activity: 3.2%
Mus musculus [4]
  Activity: Non-toxic
HEK293 [5]
  Ratio IC50: 7.1
Mus musculus [6]
  Activity: Non-toxic
[7]
  Activity: 15.3%
Mus musculus [8]
  Activity: Non-toxic
Mus musculus [9]
  Activity: Non-toxic
HEK293 [10]
  Ratio IC50: 2.2
Mus musculus [11]
  Activity: Non-toxic
Mus musculus [12]
  Activity: Non-toxic
[13]
  Activity: 18.5%
HuTu80 [14]
  Ratio IC50: 7.5
HUVEC
  IC50: 112 µg/mL (≈ 251 µM)
[15]
  IC90 at 48 h: 276 µg/mL (≈ 616 µM)
Mus musculus [16]
  Activity: Non-toxic
Mus musculus [17]
  Activity: Non-toxic
HuTu80 [18]
  Activity: 1.2%
HEK293 [19]
  Ratio IC50: 1.3
[20]
  IC50: 15 µg/mL (≈ 33.5 µM)
  IC90: 28 µg/mL (≈ 62.4 µM)
[21]
  IC90 at 48 h: 221 µg/mL (≈ 492 µM)
HEK293 [22]
  IC50: 107 µg/mL (≈ 239 µM)
HuTu80 [23]
  Activity: 88%
[24]
  Activity: 26.1%
HuTu80 [25]
  Activity: 7.5%
4T1 [26]
  Ratio IC50: 2.3
[27]
  IC50: 82.4 µg/mL (≈ 184 µM)
  IC90: 155 µg/mL (≈ 346 µM)
[28]
  Activity: 25.1%
4T1 [29]
  IC50: 47.9 µg/mL (≈ 107 µM)
  IC90: 98.4 µg/mL (≈ 219 µM)
PANC-1
  Ratio IC50: 1.36
Mus musculus [30]
  Activity: Non-toxic
